Structures are written as SMILES. A value given as a limit tells only on which side of the number the result lay.

As to `CCC(C)(C)NC(=S)Nc1cc(Cl)cc(Cl)c1`, the melting point was in the range of 134 to 136 °C. In turn, `Brc1ccccc1P(c1cccc2ccccc12)c1cccc2ccccc12` gave a melting point of 206 to 207 °C. With `CC(C)(C)CC(=O)c1c(-c2ccc3c(Br)c(OCC(=O)O)ccc3c2)oc2ccccc12`, the melting point was in the range of 151 to 153 °C. Take `Cc1[nH]cnc1CN1CCc2c(c3cccc(F)c3n2C)C1`: the melting point was 188 to 190 °C. As for `COc1cc2c(cc1OC)CN(CC(O)c1ccc(N)cc1)CC2` (stereo not given), the melting point is 168 °C. The value for `O=C(O)c1ccc(F)cc1Nc1ccc(I)cc1Cl` was 238 to 239 °C.

Molecule `c1ccc(-c2nc(COc3cccc(Cc4nnn[nH]4)c3)cs2)cc1` gave a melting point of 160 to 161 °C. Turning to `COc1nc(C)cnc1NS(=O)(=O)c1cccnc1-c1ccc(NC(C)=O)cc1`, the melting point lay within 208 to 209 °C. `O=C1Nc2c(ccc3ccccc23)SC1c1ccc(Cl)cc1` (stereo not given) came in with a melting point of 236 to 238 °C. `COc1cc2c(c3c1OC(C)(C)C3)C(c1cccc(NC(=O)CS(C)(=O)=O)c1)=NC(C)(C)C2`: the melting point lay within 135 to 140 °C.

In the case of `COC(=O)C=Cc1ccc(-n2ccn(-c3ccc(C#N)cc3)c2=O)cc1`, the melting point is 210 to 212 °C.

In turn, `CCCCNC(=O)C(C)n1cc(C)c(-c2ccccc2)n1` (stereo not given) came in with a melting point of 82 to 84 °C. `CC1CCC(c2ccc(Cl)c(C(F)(F)F)c2)=NN1S(=O)(=O)c1ccc(I)cc1` (stereo not given): the melting point was in the range of 157 to 158 °C.

The molecule `CCOC(=O)Cn1ncc(-c2ccc(OC)cc2)c1-c1ccccc1` registered a melting point of 81 to 84 °C.

`Cc1ccc(-c2occc2C(=O)O)cc1` returned a melting point of 166 °C. To `O=C(O)c1c[nH]c(Sc2cccc(Cl)c2)c1` belongs 134 to 137 °C. In turn, `C#CCOc1cc(-n2nc3n(c2=O)CCCN3)c(F)cc1Cl` had a melting point of 172 to 174 °C. Molecule `CCCCc1nc(Cl)c(CC(=O)O)c(Cc2ccc(-c3ccccc3-c3nnn[nH]3)cc2)n1` gave a melting point of 180 °C. `FC(F)(F)C(c1ccc(Cl)cc1)C(c1ccccc1)c1ccc(OCC2CO2)cc1` (stereo not given) yielded a melting point of 141 to 144 °C. Regarding `CCCCOc1c(CNC(=O)OC(C)(C)C)n(CC(C)C)c(=O)c2ccc(C(C)=O)cc12`, the melting point lay within 161 to 162 °C. `N#Cc1cc(CC(=O)O)cc2c1NC(C(F)(F)F)CC2` (stereo not given): the melting point is 148 to 149 °C. Turning to `CCOC(=O)c1cc(N(C)S(C)(=O)=O)c(C)nc1C(=O)OCC`, the melting point was 90 to 93 °C. Take `O=C(CN1CCC(Cc2ccc(F)cc2)CC1)Nc1cccc([N+](=O)[O-])c1`: the melting point lay within 118 to 120 °C. Molecule `COc1ccc(-c2ccc(C#N)cc2)cc1-c1nc2cc(C#N)ccc2[nH]1` registered a melting point of 289 to 290 °C. The molecule `O=C(CC(Cc1cccc2ccccc12)C(=O)N1C(=O)OCC1Cc1ccccc1)N1CCOCC1` (stereo not given) gave a melting point of 80 to 82 °C.

For `COC(=O)NNC(=O)Cl`, the melting point was in the range of 55 to 58 °C. Turning to `COc1ccc2cc(C3SCCCS3)ccc2c1`, the melting point stood at 190 °C. `CC(=O)NCC1CN(c2ccc3c(c2)C(=O)CCCC3)C(=O)O1` (stereo not given) came in with a melting point of 120 to 121 °C. For the molecule `O=C1CSc2c(ccc3ccccc23)N1`, the melting point lay within 211 to 212 °C.

As to `CC(=O)OC1CC(C)(C)C(OC(=O)c2ccccc2)C(O)C=C1C` (stereo not given), the melting point is 113 to 114 °C.

The molecule `O=C(O)Cc1c(C(=O)c2cccc(Cl)c2)[nH]c2ccc(F)cc12` displayed a melting point of 208 to 212 °C. To `NNC(=O)C(=O)N(N)C(=O)c1ccccc1` belongs 226 °C; to `CCC(=N)NC(=O)Nc1ccc(Cl)cc1`, 191 to 192 °C. `CCc1cc(C(=O)c2ccccc2Cl)c(-n2cnnc2CNC(=O)c2ccccc2)s1` returned a melting point of 140 to 142 °C. The molecule `Oc1cc2c3c(sc2c(Cl)c1Cl)CCCC3` registered a melting point of 103 to 105 °C. As for `O=c1ccc(OS(=O)(=O)C(F)(F)F)n[nH]1`, the melting point lay within 130 to 132 °C.

In turn, `CNc1nc(C)c(C(=O)c2sc(NC)nc2C)s1` registered a melting point of 184 to 185 °C.

The molecule `C[C@@H](Cc1c2n(c3cc(F)c(O)cc13)CCC2)NC(=O)OC(C)(C)C` came in with a melting point of 198 to 199 °C. The value for `CCC1(O)NC(=O)C2(c3ccc(Cl)cc3)CC12` (stereo not given) was 117 to 124 °C; that for `N#CC(C(=O)OC1CCCCC1)=C1Nc2ccccc2O1` was 143 to 145 °C; that for `CC(=O)NCc1ccc(/C=C/C(c2cc(Cl)cc(Cl)c2)C(F)(F)F)cc1Cl` (stereo not given) was 127 to 128 °C. Regarding `Cc1cc(-c2ccccc2)n2nc(S(C)(=O)=O)nc2n1`, the melting point fell in the range of 158 to 159 °C. The value for `CC(C)(C)c1cc(Cl)c2c(c1)CNS(=O)(=O)O2` was 158 to 160 °C; that for `Cc1nc2ccc(Cl)cc2c(-c2ccc(F)cc2)c1CO` was 173 to 175 °C; that for `Cc1cc(Cl)ccc1NC(=O)c1cccc([N+](=O)[O-])c1C(=O)NC(C)C` was 202 to 204 °C.

Molecule `CC12CCCC1C1CCc3cc(C(=O)O)ccc3C1CC2` (stereo not given) returned a melting point of 235 to 240 °C.

On to `O=S(=O)(Nc1ccc2c(OCc3ccc(-c4ccc(Cl)c(Cl)c4)cc3F)cccc2c1)C(F)(F)F`, for which the melting point is 172 to 174 °C.

As for `COc1ccc(Cl)cc1NC(=O)[C@H]1[C@H](c2ccc(Cl)cc2)C1(C)C` (relative stereo), the melting point is 162 to 164 °C. Turning to `Cn1c(C(F)(F)F)cc(=O)n(-c2ccc3snc(COCC(=O)NS(C)(=O)=O)c3c2)c1=O`, the melting point is above 240 °C. For `O=C(O)c1ccc(-c2nnc(-c3ccc(OC(F)(F)C(F)(F)F)cc3)o2)cc1`, the melting point lay in the range of 301 to 307 °C. The value for `N=C1SCCN1c1ccccc1[N+](=O)[O-]` was 127 °C; that for `CC(C)(C)NS(=O)(=O)c1cnc(-c2cn(-c3nc(-c4ccc(C(F)(F)F)cc4)cc(C(F)(F)F)n3)cn2)s1` was 281 °C; that for `CC(=O)Nc1nc(O)c2cc(I)cnc2n1` was above 280 °C. `O=[N+]([O-])c1c(OS(=O)(=O)C(F)(F)F)nc2ccccc2c1OS(=O)(=O)C(F)(F)F`: the melting point lay within 74.5 to 76 °C. The molecule `COc1ccc([C@H](CC(=O)O)N2CCN(CCCc3ccc4c(n3)NCCC4)C2=O)cn1` displayed a melting point of 122 °C.

Regarding `CON(C)C(=O)Nc1ccc(Oc2ccc3ccccc3c2)c(C(F)(F)F)c1`, the melting point lay within 129 to 130 °C. The molecule `COc1cc2c(cc1Cl)CC(=O)NN=C2c1ccc(N)cc1` displayed a melting point of 234 to 236 °C. Turning to `CCN(c1cccc2cc(C(N)=S)[nH]c12)S(=O)(=O)c1cccs1`, the melting point came to 163 °C. The value for `COC(=O)c1nc(-c2ccc(Cl)c(OC)c2F)nc(N)c1C(F)CBr` (stereo not given) was 144 to 146 °C; that for `CC1(CN2CCC(S(=O)c3ccc(OC(F)(F)F)cc3)CC2)Cn2cc([N+](=O)[O-])nc2O1` (stereo not given) was 107 to 109 °C. To `Cc1ccc(C(=C(C=O)c2nnnn2C)c2ccc(C)cc2F)c(F)c1` belongs 154 to 155 °C; to `CC(C)(C)OC(=O)NCCON=C(C(=O)O)c1cccs1`, 113 to 114 °C. Molecule `COc1ccc2c(c1)[nH]c(=O)c(=O)n2C` showed a melting point of 332 °C.

`Cc1c2n(c3ccccc13)C(=O)C(C(O)c1ncc[nH]1)CC2` (stereo not given) returned a melting point of 199 to 200 °C.

Regarding `CCc1nn(CCOP(=O)(O)O)c(CC)c1Oc1cc(C#N)cc(C#N)c1`, the melting point was 198 to 199 °C.

For `N#Cc1ccc(OCc2ccsc2)cc1OC(C(=O)O)c1ccccc1Br` (racemic), the melting point was in the range of 89 to 98 °C. The value for `CNS(=O)(=O)Oc1ccc2c(c1)C(C)(C)C(O)O2` (stereo not given) was 111 to 112 °C; that for `COc1nc(C)c(C(C)=O)cc1NC(=S)N1CCN(c2cccc(O)c2)CC1` was 114 to 115 °C. Molecule `COc1cccc2c1C(=CC(=O)c1ccccc1)OC2=O` registered a melting point of 165 °C. Take `O=C(Nc1cccc2cc(C(=O)N3CCCCC3)[nH]c12)c1cccs1`: the melting point lay in the range of 131 to 132 °C. For the molecule `O=Cc1cnc(-c2ccc(F)cc2)nc1`, the melting point stood at 168 °C. The molecule `O=C(O)c1cccc(CN2C(=O)C3(COc4cc5c(cc43)OCCO5)c3ccccc32)c1` (stereo not given) registered a melting point of 254 to 258 °C. With `CCCCCCCCCCc1c(C)nc2ccccn2c1=O`, the melting point is 66 to 67.5 °C.

In the case of `CC(=O)c1cccc(N2CCN(CCC3CCC(NC(=O)CC#N)CC3)CC2)c1` (stereo not given), the melting point is 160 °C. Consider `CCCN(CCC)CC(=O)OC1CC2(C)C(C(C)=O)CCC2C2CCC3CC(O)CCC3(C)C12` (stereo not given), for which the melting point lay within 116 to 118 °C. To `CC(C)C(=O)O[C@H](C)[C@@H](C)OC(=O)[C@@H](N)Cc1ccc(O)c(O)c1` belongs 165 to 166 °C; to `Cc1ccc(-c2cccn2-c2ccc(S(C)(=O)=O)cc2)cc1`, 186 to 187 °C. On to `O=S(=O)(c1ccc(O)c(Br)c1)N1c2ccc(Br)cc2-c2ccccc2C1c1ccccc1` (stereo not given), for which the melting point was in the range of 237 to 239 °C. For `CC1(C)C(C=C(Cl)Cl)C1C(N)=O` (stereo not given), the melting point fell in the range of 78 to 81 °C. Molecule `CCCc1nc(C)n2[nH]c(=O)nc2c1Cc1ccc(-c2ccccc2C#N)cc1` displayed a melting point of 215 to 216 °C.

With `O=[N+]([O-])c1nc(CC(O)C2CO2)c[nH]1` (stereo not given), the melting point fell in the range of 90 to 92 °C. Regarding `COc1cc2c(cc1OC)CN(CCCCc1ccc(NC(=O)c3ccc4ccccc4c3)cc1)CC2`, the melting point lay within 165 to 167 °C. On to `O=C(Cc1ccsc1)Nc1ncc(Cl)cc1Cl`, for which the melting point was in the range of 159 to 160 °C. To `CCc1ccc(CCOc2ccc(CC(N)C(=O)O)cc2)nc1` (stereo not given) belongs 214 to 221 °C; to `N#CC(NC(=O)c1cccc(Cl)c1)n1ccnn1` (stereo not given), 157 to 159 °C; to `COc1ccc(CNC(=O)c2cn3c(=O)n(Cc4ccc(Cl)c(Cl)c4)c(=O)cc3s2)cc1`, 206 to 207 °C. `Cn1c(CNC[C@H]2CCCO2)cc2cc(NC(=O)c3ccc(OCC4CC4)cc3)ccc21` gave a melting point of 138 to 139 °C. Molecule `CCCc1ccc(C=O)n1Cc1ccc(-c2ccccc2-c2nnn[nH]2)cc1` had a melting point of 68 to 71 °C. `O=C(O)c1ccccc1-c1ccc(C(F)(F)F)c(Cl)c1`: the melting point is 181 to 184 °C. `C=C(C)C#Cc1ccc2c(c1)NC(=O)CC(c1cccc(C#N)c1)=N2` came in with a melting point of 231 °C.

Values taken from a melting point compilation (Tetko et al.; mined from patent text by program, amines drawn as free bases though some values may be those of a salt).
